Test results: EP2669276A1 (Université de Strasbourg, priority 2012, dated 2013)

Key:
hNPFF1 = target: T1, hNPFF1 (Homo sapiens, UniProt Q9GZQ6); assay: Receptor binding assay with [3H]-FFRFamide on CHO cell membranes expressing SF-hNPFFR1; settings: [3H]-FFRF-NH2 radioligand, mean of at least two experiments; for Ki: read-out: Ki NPFF1
T1 construct: The cDNA encoding the full-length human NPFFR1 and human NPFFR2; expressed in transfected cells
Description: (§1) The cDNA encoding the full-length human NPFFR1 and human NPFFR2 were subcloned into the pcDNA3 expression vector (Invitrogen, Cergy Pontoise, France) using standard molecular biology methods. A sequence encoding a signal sequence and a Flag epitope was fused to the 5' coding sequence of both hNPFFR1 and hNPFFR2 cDNA according to (Guan et al., 1992) resulting in a SF-hNPFFR1 and SF-hNPFFR2 constructs. These contructs were stably transfected into CHO cells.
(§2) Membranes from CHO cells stably expressing SF-hNPFFR1 or SF-hNPFFR2 were prepared as described (Becker et al., 1999). SF-hNPFFR1 or SF-hNPFFR2 membranes (10µg) were incubated for 30 min at 25 °C in a final volume of 0.5 ml containing 50 mM HEPES pH 7.4, 1 mM CaCl2, 1 mM MgCl2, 0.1% bovine serum albumin, 10 nM and 3 nM [^3H]-FFRFamide (CEA, Paris; specific activity, 13,6 Ci/mmol) for […], respectively and the ligands to be tested. Non-specific binding was determined in presence of 1 µM neuropeptide FF for SF-hNPFFR2 and 1 µM neuropeptide VF for SF -hNPFFR1. Typical total and nonspecific binding were 1200 and 200 dpm, respectively for SF-hNPFFR1 and SF-hNPFFR2. Incubation mixtures were rapidly filtered and washed with 50 mM HEPES pH 7.4, 1 mM CaCl2, 1 mM MgCl2, on 96 wells GF/B unifilter (Perkin Elmer). Unifilter plates where then dryied for 1hr at 65°C. Bound radioactivity was determined by scintillation counting with 30 µl of scintillation cocktail (O-scint, Perkin Elmer) per well on a Topcount scintillation apparatus (Perkin Elmer).

hNPFF2 = target: T2, hNPFF2 (Homo sapiens, UniProt Q9Y5X5); assay: Receptor binding assay with [3H]-FFRFamide on CHO cell membranes expressing SF-hNPFFR2; settings: [3H]-FFRF-NH2 radioligand, mean of at least two experiments; for Ki: read-out: Ki NPFF2
T2 construct: The cDNA encoding the full-length human NPFFR1 and human NPFFR2; expressed in transfected cells
T2 sequence (Q9Y5X5 whole entry): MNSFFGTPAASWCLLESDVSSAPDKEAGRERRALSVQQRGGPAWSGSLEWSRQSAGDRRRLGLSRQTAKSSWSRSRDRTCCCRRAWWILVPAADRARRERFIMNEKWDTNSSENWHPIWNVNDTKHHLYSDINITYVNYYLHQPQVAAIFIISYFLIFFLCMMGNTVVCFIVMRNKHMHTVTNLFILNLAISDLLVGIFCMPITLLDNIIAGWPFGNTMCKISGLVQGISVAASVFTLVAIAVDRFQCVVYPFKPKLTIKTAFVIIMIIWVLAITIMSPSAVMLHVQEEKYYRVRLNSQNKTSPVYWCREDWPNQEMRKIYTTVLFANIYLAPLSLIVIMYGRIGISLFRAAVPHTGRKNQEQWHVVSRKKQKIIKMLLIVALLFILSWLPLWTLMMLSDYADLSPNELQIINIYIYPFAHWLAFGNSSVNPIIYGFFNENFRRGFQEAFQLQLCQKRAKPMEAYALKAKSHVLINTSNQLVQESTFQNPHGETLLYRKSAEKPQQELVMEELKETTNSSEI
Description: as §1, §2

T1 sequence (Q9GZQ6 whole entry): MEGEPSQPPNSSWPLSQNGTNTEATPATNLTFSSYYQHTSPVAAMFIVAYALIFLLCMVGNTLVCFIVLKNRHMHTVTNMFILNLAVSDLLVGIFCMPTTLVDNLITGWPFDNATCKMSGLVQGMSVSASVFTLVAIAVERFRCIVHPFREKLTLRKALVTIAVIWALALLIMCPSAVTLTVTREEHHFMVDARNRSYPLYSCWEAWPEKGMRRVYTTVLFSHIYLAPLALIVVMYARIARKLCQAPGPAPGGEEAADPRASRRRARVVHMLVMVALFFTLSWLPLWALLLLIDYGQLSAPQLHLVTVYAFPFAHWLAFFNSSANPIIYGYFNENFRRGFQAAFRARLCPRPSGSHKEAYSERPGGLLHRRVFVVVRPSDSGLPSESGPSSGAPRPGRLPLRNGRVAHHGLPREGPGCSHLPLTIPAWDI

| Structure (SMILES) | Ki (hNPFF1) | Ki (hNPFF2) | inhibition at 0.5 µM (hNPFF1) | inhibition at 5 µM (hNPFF1) | inhibition at 0.5 µM (hNPFF2) | inhibition at 5 µM (hNPFF2) |
| --- | --- | --- | --- | --- | --- | --- |
| O=C(N[C@@H](CCCNCc1ccccc1)C(=O)NCCc1ccccc1)c1ccccc1-c1ccccc1 [Compound 1, (2S)-5-(benzylamino)-N-(2-phenylethyl)-2-[(2-phenylphenyl)formamido]pentanamide] | 240 ± 38 nM | 2300 ± 66 nM | – | – | – | – |
| O=C(N[C@H](CCCNCc1ccccc1)C(=O)NCCc1ccccc1)c1ccccc1-c1ccccc1 [Compound 2, (2R)-5-(benzylamino)-N-(2-phenylethyl)-2-[(2-phenylphenyl)formamido]pentanamide] | 480 ± 33 nM | 910 ± 94 nM | – | – | – | – |
| O=C(N[C@@H](CCCNCCc1ccccc1)C(=O)NCCc1ccccc1)c1ccccc1-c1ccccc1 [Compound 3, (2S)-N-(2-phenylethyl)-5-[(2-phenylethyl)amino]-2-[(2-phenylphenyl)formamido]pentanamide] | – | – | 29 ± 2% | 61 ± 1% | 15 ± 15% | 24 ± 6% |
| CC(C)CNCCC[C@H](NC(=O)c1ccccc1-c1ccccc1)C(=O)NCCc1ccccc1 [Compound 4, (2S)-5-[(2-methylpropyl)amino]-N-(2-phenylethyl)-2-[(2-phenylphenyl)formamido]pentanamide] | – | – | 14 ± 1% | 23% | 2 ± 6% | 7 ± 15% |
| CN(CCc1ccccc1)C(=O)[C@H](CCCNCc1ccccc1)NC(=O)c1ccccc1-c1ccccc1 [Compound 5, (2S)-5-(benzylamino)-N-methyl-N-(2-phenylethyl)-2-[(2-phenylphenyl)formamido]pentanamide] | 56 ± 11 nM | 1300 ± 590 nM | – | – | – | – |
| O=C(N[C@@H](CCCCNCc1ccccc1)C(=O)NCCc1ccccc1)c1ccccc1-c1ccccc1 [Compound 6, (2S)-6-(benzylamino)-N-(2-phenylethyl)-2-[(2-phenylphenyl)formamido]hexanamide] | 210 ± 39 nM | 720 ± 59 nM | – | – | – | – |
| O=C(N[C@H](CCCCNCc1ccccc1)C(=O)NCCc1ccccc1)c1ccccc1-c1ccccc1 [Compound 7, (2R)-6-(benzylamino)-N-(2-phenylethyl)-2-[(2-phenylphenyl)formamido]hexanamide] | 22 ± 4 nM | 605 ± 180 nM | – | – | – | – |
| COc1ccccc1CNCCC[C@H](NC(=O)c1ccccc1-c1ccccc1)C(=O)NCCc1ccccc1 [Compound 8, (2S)-5-{[(2-methoxyphenyl)methyl]amino}-N-(2-phenylethyl)-2-[(2-phenylphenyl)formamido]pentanamide] | 23 ± 4 nM | 103 ± 44 nM | – | – | – | – |
| COc1cccc(CNCCC[C@H](NC(=O)c2ccccc2-c2ccccc2)C(=O)NCCc2ccccc2)c1 [Compound 9, (2S)-5-{[(3-methoxyphenyl)methyl]amino}-N-(2-phenylethyl)-2-[(2-phenylphenyl)formamido]pentanamide] | – | – | 21 ± 4% | 60 ± 3% | 9 ± 1% | 45% |
| COc1ccc(CNCCC[C@H](NC(=O)c2ccccc2-c2ccccc2)C(=O)NCCc2ccccc2)cc1 [Compound 10, (2S)-5-{[(4-methoxyphenyl)methyl]amino}-N-(2-phenylethyl)-2-[(2-phenylphenyl)formamido]pentanamide] | 30 ± 2 nM | – | – | – | 11 ± 20% | 40 ± 2% |
| O=C(N[C@@H](CCCNC1CCCCC1)C(=O)NCCc1ccccc1)c1ccccc1-c1ccccc1 [Compound 11, (2S)-5-(cyclohexylamino)-N-(2-phenylethyl)-2-[(2-phenylphenyl)formamido]pentanamide] | – | – | 49 ± 37% | 37 ± 1% | 8 ± 3% | 26 ± 8% |
| O=C(N[C@@H](CCCNCc1ccccc1Cl)C(=O)NCCc1ccccc1)c1ccccc1-c1ccccc1 [Compound 12, (2S)-5-{[(2-chlorophenyl)methyl]amino}-N-(2-phenylethyl)-2-[(2-phenylphenyl)formamido]pentanamide] | – | – | 32 ± 1% | 74 ± 2% | 25 ± 5% | 64 ± 3% |
| O=C(N[C@@H](CCCNCc1cccc(Cl)c1)C(=O)NCCc1ccccc1)c1ccccc1-c1ccccc1 [Compound 13, (2S)-5-{[(3-chlorophenyl)methyl]amino}-N-(2-phenylethyl)-2-[(2-phenylphenyl)formamido]pentanamide] | 59 ± 14 nM | – | – | – | 23 ± 17% | 67 ± 4% |
| O=C(N[C@@H](CCCNCc1ccc(Cl)cc1)C(=O)NCCc1ccccc1)c1ccccc1-c1ccccc1 [Compound 14, (2S)-5-{[(4-chlorophenyl)methyl]amino}-N-(2-phenylethyl)-2-[(2-phenylphenyl)formamido]pentanamide] | 45 ± 4 nM | – | – | – | 16 ± 2% | 54 ± 3% |
| CN(CCC[C@H](NC(=O)c1ccccc1-c1ccccc1)C(=O)NCCc1ccccc1)Cc1ccccc1 [Compound 15, (2S)-5-[benzyl(methyl)amino]-N-(2-phenylethyl)-2-[(2-phenylphenyl)formamido]pentanamide] | 680 ± 160 nM | 1100 ± 510 nM | – | – | – | – |
| COc1ccccc1CN(C)CCC[C@H](NC(=O)c1ccccc1-c1ccccc1)C(=O)NCCc1ccccc1 [Compound 16, (2S)-5-{[(2-methoxyphenyl)methyl](methyl)amino}-N-(2-phenylethyl)-2-[(2-phenylphenyl)formamido]pentanamide] | – | – | 9 ± 4% | 50 ± 10% | 6 ± 13% | 47 ± 1% |
| COc1ccc(CN(C)CCC[C@H](NC(=O)c2ccccc2-c2ccccc2)C(=O)NCCc2ccccc2)cc1OC [Compound 17, (2S)-5-{[(3,4-dimethoxyphenyl)methyl](methyl)amino}-N-(2-phenylethyl)-2-[(2-phenylphenyl)formamido]pentanamide] | – | – | 17 ± 5% | 65 ± 6% | 18 ± 2% | 48 ± 3% |
| CN(CCC[C@H](NC(=O)c1ccccc1-c1ccccc1)C(=O)NCCc1ccccc1)Cc1cccc(Cl)c1 [Compound 18, (2S)-5-{[(3-chlorophenyl)methyl](methyl)amino}-N-(2-phenylethyl)-2-[(2-phenylphenyl)formamido]pentanamide] | – | – | 8 ± 3% | 45 ± 2% | 8 ± 5% | 40 ± 3% |
| CN(CCC[C@H](NC(=O)c1ccccc1-c1ccccc1)C(=O)NCCc1ccccc1)Cc1ccccc1Cl [Compound 19, (2S)-5-{[(2-chlorophenyl)methyl](methyl)amino}-N-(2-phenylethyl)-2-[(2-phenylphenyl)formamido]pentanamide] | – | – | 16 ± 5% | 60 ± 2% | 0% | 39 ± 7% |
| CN(CCC[C@H](NC(=O)c1ccccc1-c1ccccc1)C(=O)NCCc1ccccc1)Cc1ccc(Cl)cc1 [Compound 20, (2S)-5-{[(4-chlorophenyl)methyl](methyl)amino}-N-(2-phenylethyl)-2-[(2-phenylphenyl)formamido]pentanamide] | – | – | 14 ± 7% | 51 ± 2% | 11 ± 3% | 39 ± 1% |
| COc1ccc(CN(C)CCC[C@H](NC(=O)c2ccccc2-c2ccccc2)C(=O)NCCc2ccccc2)cc1 [Compound 21, (2S)-5-{[(4-methoxyphenyl)methyl](methyl)amino}-N-(2-phenylethyl)-2-[(2-phenylphenyl)formamido]pentanamide] | – | – | 12 ± 10% | 58 ± 14% | 0% | 47% |
| COc1cccc(CN(C)CCC[C@H](NC(=O)c2ccccc2-c2ccccc2)C(=O)NCCc2ccccc2)c1 [Compound 22, (2S)-5-{[(3-methoxyphenyl)methyl](methyl)amino}-N-(2-phenylethyl)-2-[(2-phenylphenyl)formamido]pentanamide] | – | – | 7 ± 6% | 50 ± 2% | 6% | 39 ± 2% |
| CN(CCC[C@H](NC(=O)c1ccccc1-c1ccccc1)C(=O)NCCc1ccccc1)CCc1ccccc1 [Compound 23, (2S)-5-[methyl(2-phenylethyl)amino]-N-(2-phenylethyl)-2-[(2-phenylphenyl)formamido]pentanamide] | 103 ± 15 nM | – | – | – | 22 ± 3% | 35 ± 8% |
| O=C(N[C@@H](CCCN1CCc2ccccc2C1)C(=O)NCCc1ccccc1)c1ccccc1-c1ccccc1 [Compound 24, (2S)-N-(2-phenylethyl)-2-[(2-phenylphenyl)formamido]-5-(1,2,3,4-tetrahydroisoquinolin-2-yl)pentanamide] | 500 ± 10 nM | 320 ± 10 nM | – | – | – | – |
